Measured values: PMC11787520, “Structural basis of the bifunctionality of Marinobacter salinexigens ZYF650^T glucosylglycerol phosphorylase in glucosylglycerol catabolism” (The Journal of Biological Chemistry, 2024)

What was measured:
MsGGP [1] = molecular target: T1, MsGGP (Marinobacter salinexigens, UniProt A0A5B0VBK8, E231A); assay: ion exchange chromatography, activity relative to wild type; type: biochemical; details: 20 mM GG, 20 mM potassium phosphate, pH 6.6, 45 °C
T1 construct: gene gtfA; full length, 480 residues, subunit 54,844 Da, N-terminal His6 tag (pET28b), E. coli BL21(DE3); six protomers in asymmetric unit

MsGGP [2] = molecular target: T2, MsGGP (Marinobacter salinexigens, UniProt A0A5B0VBK8, D190A); assay: as above; type: biochemical; details: 20 mM GG, 20 mM potassium phosphate, pH 6.6, 45 °C
T2 construct: gene gtfA; full length, 480 residues, subunit 54,844 Da, N-terminal His6 tag (pET28b), E. coli BL21(DE3); six protomers in asymmetric unit

MsGGP [3] = molecular target: T3, MsGGP (Marinobacter salinexigens, UniProt A0A5B0VBK8, D289A); assay: as above; type: biochemical; details: 20 mM GG, 20 mM potassium phosphate, pH 6.6, 45 °C
T3 construct: gene gtfA; full length, 480 residues, subunit 54,844 Da, N-terminal His6 tag (pET28b), E. coli BL21(DE3); six protomers in asymmetric unit

MsGGP [4] = molecular target: T4, MsGGP (Marinobacter salinexigens, UniProt A0A5B0VBK8); assay: X-ray crystal structure, […] Å; type: binding; details: active site of chains A and E; reaction intermediate
T4 construct: gene gtfA; full length, 480 residues, subunit 54,844 Da, N-terminal His6 tag (pET28b), E. coli BL21(DE3); six protomers in asymmetric unit

MsGGP [5] = molecular target: T4, MsGGP; assay: X-ray crystal structure, […] Å; type: binding; details: active site, together with glycerol

OCC(CO)O[C@H]1O[C@H](CO)[C@@H](O)[C@H](O)[C@H]1O [2-O-α-Glucosylglycerol]
enzyme activity relative to wildtype (MsGGP [1]): nearly complete loss of enzyme activity following the mutation of these residues to alanine | enzyme activity relative to wildtype (MsGGP [2]): nearly complete loss of enzyme activity following the mutation of these residues to alanine | enzyme activity relative to wildtype (MsGGP [3]): nearly complete loss of enzyme activity following the mutation of these residues to alanine

O=P(O)(O)O[C@H]1O[C@H](CO)[C@@H](O)[C@H](O)[C@H]1O [α-D-glucose-1-phosphate]
X-ray crystal structure, 2.7 Å (MsGGP [4]): the structure of MsGGP in complex with αGlc1-P was successfully determined

OC[C@H]1O[C@H](O)[C@H](O)[C@@H](O)[C@@H]1O [glucose]
X-ray crystal structure, 2.5 Å (MsGGP [5]): each protomer features an α-glucose and a glycerol molecule occupying the active site
